Entries after “also recorded” stand apart in the source; their conditions may differ. Like-named read-outs stand apart in the source and are kept apart here.

Series [1] addresses T1, Pin1 (Homo sapiens, UniProt Q13526). Description: α-chymotrypsin protease-coupled Pin1 inhibition assay. The class given is biochemical. Conditions: for IC50: protease-coupled assay, substrate succinyl–Ala–Glu–cis-Pro–Phe–pNA, 4 °C, duplicate.
A short description of a further series: Aqueous solubility. The format is physicochemical. The following applies: qualitative.
Series [2] addresses T1, Pin1. Conditions: cited from earlier work.
Series [3] addresses T1, Pin1. Conditions: cited from earlier work. This is another data set of the same source.

T1 sequence (Q13526 whole entry): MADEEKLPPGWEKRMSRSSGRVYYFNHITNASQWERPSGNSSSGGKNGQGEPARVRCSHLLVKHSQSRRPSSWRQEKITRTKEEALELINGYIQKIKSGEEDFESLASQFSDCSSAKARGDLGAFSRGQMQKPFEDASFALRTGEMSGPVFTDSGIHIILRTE

As a reminder, the IC50 is the concentration needed to halve the response being measured. The molecule `CC(=O)N[C@@H](COP(=O)(O)O)CN1CCCCC1C(=O)NCCc1c[nH]c2ccccc12` (mixture of isomers) [Compound 4a, Ac–pSer–Ψ[CH2N]-(R/S)Pip ^a–tryptamine] registered an IC50 on Pin1 [1] of 16 ± 2 µM. For the same molecule, the “fold more potent than diastereomer 4b” value at Pin1 [1] (ratio of IC50 values vs 4b) is “approximately 12 fold”.

For the molecule `CC(=O)N[C@@H](COP(=O)(O)O)CN1CCCCC1C(=O)NCCc1c[nH]c2ccccc12` (mixture of isomers) [Compound 4b, Ac–pSer–Ψ[CH2N]-(R/S)Pip ^a–tryptamine], the IC50 at Pin1 [1] was determined as 189 ± 17 µM.

Turning to `O=C(N[C@@H](COP(=O)(O)O)CN1CCC[C@H]1C(=O)NCCc1c[nH]c2ccccc12)OCC1c2ccccc2-c2ccccc21` [Compound 1, Fmoc–pSer–Ψ[CH2N]-Pro–tryptamine], on Pin1 [1], the IC50 was 6.3 ± 0.4 µM. Besides, the “fold better inhibition than compound 3” value on Pin1 [1] (ratio of IC50 values vs 3) was determined as 5 fold. Besides, in the series “Aqueous solubility”, the aqueous solubility result is “very poor”.

`CC(OP(=O)(O)O)C(CN1CCCC1C(=O)NCCc1c[nH]c2ccccc12)NC(=O)OCC1c2ccccc2-c2ccccc21` (stereo not shown) [Compound 3, Fmoc–pThr–Ψ[CH2N]-Pro–tryptamine] displayed an IC50 on Pin1 [1] of 30 ± 2 µM.

Regarding `O=C(NC(C=C1CCCC1C(=O)NCCc1c[nH]c2ccccc12)COP(=O)(O)O)OCC1c2ccccc2-c2ccccc21` (stereo not shown) [Fmoc-pSer–Ψ[(Z)CH=C]Pro–2-(indol-3-yl)-ethylamine], the IC50 on Pin1 [2] (similarly substituted ground-state (cis-alkene) analogue) was 28.3 µM.

What is called Ki is a dissociation constant, usually derived from enzyme kinetics or from competition with a known ligand. As for “Ac–Lys(N-biotinoyl)–Ala–Ala–Bth–D-Thr(PO3H2)–Pip–Nal–Gln–NH2”, the Ki on Pin1 [3] was 0.00021 µM.

For the molecule “Ac–pSer–Ψ[CH2N]-Pro–tryptamine [Compound 2]”, the midpoint of inhibition on Pin1 [1], the IC50, lay at 12 ± 2 µM. For the same molecule, the “fold less potent than inhibitor 1” value on Pin1 [1] (ratio of IC50 values vs 1) amounted to 2 fold. Besides, the “fold better than the similarly substituted ketone” value at Pin1 [1] (ratio of IC50 values vs Ac–pSer–Ψ[COCH]-Pip–2-(indol-3-yl)-ethylamine) is reported as 5 fold. Besides, the “fold better than the similarly substituted α-ketoamide inhibitor” value at Pin1 [1] (ratio of IC50 values vs Ac–pSer–Ψ[COCON]-Pro–2-(naphth-2-yl)-ethylamine) is recorded as 6 fold. Moreover, in the series “Aqueous solubility”, the aqueous solubility entry was “improved aqueous solubility; also recorded: improved the water solubility”.

Consider “Ac–pSer–Ψ[COCH]-Pip–2-(indol-3-yl)-ethylamine”, for which, at Pin1 [2] (similarly substituted ketone), the IC50 was 61 µM.

Take “Ac–pSer–Ψ[COCON]-Pro–2-(naphth-2-yl)-ethylamine”: the IC50 at Pin1 [2] (similarly substituted α-ketoamide inhibitor) is 100 µM.

The values above are taken from article PMC3289549 (Biochemistry, 2011).
